Reference: US9993494B2, “Compositions and methods for treating fibrotic disease” (eFFECTOR Therapeutics, Inc., priority 2014, dated 2018)

Test system: normal human lung fibroblasts
Test: Ribosomal profiling: translational efficiency in TGFβ-treated fibroblasts
Type: cell-based
Details: TGFβ-treated fibroblasts
Protocol: Ribosomal profiling allows for measurement of changes in transcription and translation on a genome-wide basis accompanying TGFβ-dependent transformation of fibroblasts to myofibroblasts. Ribosomal profiles of the TGFβ-treated fibroblasts from Example 1 (about 6×10^6 cells/10 cm plate) were prepared and analyzed for changes in translational efficiencies with respect to potential disease-associated cellular changes accompanying this TGFβ-induced transformation.
Briefly, cells were washed with cold PBS supplemented with cycloheximide and lysed with 1× mammalian cell lysis buffer for 10 minutes on ice. Lysates were clarified by centrifugation for 10 minutes at 14,000 rpm and supernatants were collected. Cell lysates were processed to generate ribosomal protected fragments and total mRNA according to the instructions included with the ARTseq Ribosome Profiling Kit (Illumina, San Diego, Calif.). Sequencing of total RNA (RNA) and of ribosome-protected fragments of RNA (RPF) was carried out using RNA-Seq methodology according to the manufacturer's instructions (Illumina). To analyze the ribosomal profiles, RNA-Seq reads were processed with tools from the FASTX-Toolkit (fastq_quality_trimmer, fastx_clipper and fastx_trimmer). Unprocessed and processed reads were evaluated for a variety of quality measures using FastQC, and processed reads were mapped to the human genome using TopHat (see, e.g., Trapnell et al., Bioinformatics 25:1105, 2009). Gene-by-gene assessment of the number of fragments strictly and uniquely mapping to the coding region of each gene was conducted using HTSeq-count, a component of the HTSeq package. […] Genes with low counts in either RPF or RNA were excluded from differential analyses. Pathway and network analyses of differential data were conducted using Ingenuity Pathway Analysis (IPA).

For `COC(=O)[C@H]1[C@@H](O)[C@@]2(O)c3c(OC)cc(O[C@@H]4O[C@@H]([C@H](O)CO)CO[C@H]4OC)cc3O[C@@]2(c2ccc(OC)cc2)[C@@H]1c1ccccc1` [Silvestrol], which “renormalizing the translational profile of RPL9” value (ENSG00000163682) is on record?
Its value is “− (− = <0.9)”.

What about the “renormalizing the translational profile of RHOBTB3” value (ENSG00000164292) of the same compound?
Its value is “− (− = <0.9)”.

And the “renormalizing the translational profile of HCN1” value (ENSG00000164588)?
Its value is “− (− = <0.9)”.

And the “renormalizing the translational profile of RPL36AL” value (ENSG00000165502)?
The value was “− (− = <0.9)”.

What about the “renormalizing the translational profile of RPL27A” value (ENSG00000166441) of the same compound?
The value was “− (− = <0.9)”.

And the “renormalizing the translational profile of RP11-382A20.3.1” value (ENSG00000166503)?
Its value is “− (− = <0.9)”.

What about the “renormalizing the translational profile of ANKDD1A” value (ENSG00000166839) of the same compound?
The value was “− (− = <0.9)”.

What about the “renormalizing the translational profile of RPL13” value (ENSG00000167526) of the same compound?
The value was “− (− = <0.9)”.

What about the “renormalizing the translational profile of EEF2” value (ENSG00000167658) of the same compound?
The value was “− (− = <0.9)”.

What about the “renormalizing the translational profile of CA5B” value (ENSG00000169239) of the same compound?
Its value is “+ (+ = 0.9 to 1.5)”.

What about the “renormalizing the translational profile of MURC” value (ENSG00000170681) of the same compound?
Its value is “− (− = <0.9)”.

And the “renormalizing the translational profile of HTRA3” value (ENSG00000170801)?
Its value is “− (− = <0.9)”.

And the “renormalizing the translational profile of PDE7B” value (ENSG00000171408)?
The value was “+ (+ = 0.9 to 1.5)”.

What about the “renormalizing the translational profile of LPAR3” value (ENSG00000171517) of the same compound?
The value was “+ (+ = 0.9 to 1.5)”.

What about the “renormalizing the translational profile of CTPS” value (ENSG00000171793) of the same compound?
Its value is “− (− = <0.9)”.

What about the “renormalizing the translational profile of QARS” value (ENSG00000172053) of the same compound?
The value was “− (− = <0.9)”.

And the “renormalizing the translational profile of RPL38” value (ENSG00000172809)?
The value was “− (− = <0.9)”.

What about the “renormalizing the translational profile of MRPL45” value (ENSG00000174100) of the same compound?
Its value is “− (− = <0.9)”.

What about the “renormalizing the translational profile of RPL4” value (ENSG00000174444) of the same compound?
Its value is “− (− = <0.9)”.

And the “renormalizing the translational profile of RPL15” value (ENSG00000174748)?
Its value is “− (− = <0.9)”.

What about the “renormalizing the translational profile of DES” value (ENSG00000175084) of the same compound?
Its value is “− (− = <0.9)”.

What about the “renormalizing the translational profile of EIF3F” value (ENSG00000175390) of the same compound?
The value was “− (− = <0.9)”.

And the “renormalizing the translational profile of CLCF1” value (ENSG00000175505)?
Its value is “+ (+ = 0.9 to 1.5)”.

And the “renormalizing the translational profile of AMIGO3” value (ENSG00000176020)?
The value was “− (− = <0.9)”.

What about the “renormalizing the translational profile of C14orf49” value (ENSG00000176438) of the same compound?
The value was “− (− = <0.9)”.

What about the “renormalizing the translational profile of RPLP2” value (ENSG00000177600) of the same compound?
Its value is “− (− = <0.9)”.

What about the “renormalizing the translational profile of IMPDH2” value (ENSG00000178035) of the same compound?
The value was “− (− = <0.9)”.

And the “renormalizing the translational profile of DNAJC22” value (ENSG00000178401)?
Its value is “− (− = <0.9)”.

What about the “renormalizing the translational profile of RPL35A” value (ENSG00000182899) of the same compound?
Its value is “− (− = <0.9)”.

What about the “renormalizing the translational profile of LENG9” value (ENSG00000182909) of the same compound?
Its value is “+ (+ = 0.9 to 1.5)”.

And the “renormalizing the translational profile of C22orf32” value (ENSG00000183172)?
Its value is “− (− = <0.9)”.

What about the “renormalizing the translational profile of NPW” value (ENSG00000183971) of the same compound?
Its value is “− (− = <0.9)”.

What about the “renormalizing the translational profile of PDE4B” value (ENSG00000184588) of the same compound?
Its value is “+++ (+++ = >2.0)”.

What about the “renormalizing the translational profile of ROBO2” value (ENSG00000185008) of the same compound?
Its value is “− (− = <0.9)”.

What about the “renormalizing the translational profile of PTCH1” value (ENSG00000185920) of the same compound?
Its value is “− (− = <0.9)”.

What about the “renormalizing the translational profile of POLR1D” value (ENSG00000186184) of the same compound?
The value was “− (− = <0.9)”.

And the “renormalizing the translational profile of DYNC2H1” value (ENSG00000187240)?
The value was “++ (++ = 1.5 to 2.0)”.

And the “renormalizing the translational profile of RPL14” value (ENSG00000188846)?
Its value is “− (− = <0.9)”.

And the “renormalizing the translational profile of LRRK2” value (ENSG00000188906)?
The value was “− (− = <0.9)”.

And the “renormalizing the translational profile of NACA” value (ENSG00000196531)?
The value was “− (− = <0.9)”.

What about the “renormalizing the translational profile of LAMB3” value (ENSG00000196878) of the same compound?
Its value is “+ (+ = 0.9 to 1.5)”.

What about the “renormalizing the translational profile of PCBP2” value (ENSG00000197111) of the same compound?
The value was “+ (+ = 0.9 to 1.5)”.

What about the “renormalizing the translational profile of MAP3K5” value (ENSG00000197442) of the same compound?
The value was “− (− = <0.9)”.

What about the “renormalizing the translational profile of RPL37A” value (ENSG00000197756) of the same compound?
Its value is “− (− = <0.9)”.

What about the “renormalizing the translational profile of RPL12” value (ENSG00000197958) of the same compound?
Its value is “− (− = <0.9)”.

And the “renormalizing the translational profile of LPAR1” value (ENSG00000198121)?
Its value is “− (− = <0.9)”.

And the “renormalizing the translational profile of RPL23A” value (ENSG00000198242)?
The value was “− (− = <0.9)”.

What about the “renormalizing the translational profile of RPL10A” value (ENSG00000198755) of the same compound?
Its value is “− (− = <0.9)”.

And the “renormalizing the translational profile of RPL39” value (ENSG00000198918)?
The value was “− (− = <0.9)”.

What about the “renormalizing the translational profile of CARD16” value (ENSG00000204397) of the same compound?
Its value is “+ (+ = 0.9 to 1.5)”.

And the “renormalizing the translational profile of MICA” value (ENSG00000204520)?
The value was “− (− = <0.9)”.

What about the “renormalizing the translational profile of GNB2L1” value (ENSG00000204628) of the same compound?
The value was “− (− = <0.9)”.

And the “renormalizing the translational profile of RPL17” value (ENSG00000215472)?
The value was “− (− = <0.9)”.

And the “renormalizing the translational profile of RPL41” value (ENSG00000229117)?
Its value is “− (− = <0.9)”.

What about the “renormalizing the translational profile of ARPC1A” value (ENSG00000241685) of the same compound?
The value was “− (− = <0.9)”.

What about the “renormalizing the translational profile of EEF1G” value (ENSG00000254772) of the same compound?
Its value is “− (− = <0.9)”.

And the “number of genes whose translational efficiency was uniquely modulated by the compound” value (duplicate ribosomal profiles)?
The value was 26 genes.

And the “effect in renormalizing the translational profile of the gene” value (gene RPS2 (ENSG00000140988))?
The value was “− (− = <0.9)”.

And the “effect in renormalizing the translational profile of the gene” value (gene RPS3 (ENSG00000149273))?
Its value is “− (− = <0.9)”.

And the “effect in renormalizing the translational profile of the gene” value (gene RPS3A (ENSG00000145425))?
Its value is “− (− = <0.9)”.

What about the “effect in renormalizing the translational profile of the gene” value (gene RPS4X (ENSG00000198034)) of the same compound?
Its value is “− (− = <0.9)”.

What about the “effect in renormalizing the translational profile of the gene” value (gene RPS4Y1 (ENSG00000129824)) of the same compound?
Its value is “− (− = <0.9)”.

And the “effect in renormalizing the translational profile of the gene” value (gene RPS5 (ENSG00000083845))?
Its value is “− (− = <0.9)”.

What about the “effect in renormalizing the translational profile of the gene” value (gene RPS6 (ENSG00000137154)) of the same compound?
The value was “− (− = <0.9)”.
